Assay: Dissolution of ASA in buffers and solvent systems (clear solution or suspension)
Type: physicochemical
Details: for Dissolution of aspirin in buffer: aspirin 10 to 50 mg/ml in 10 ml; for Dissolution of aspirin in solvent system: aspirin up to 75 mg/ml
Method: Parenteral solutions comprising aspirin in buffers are typically prepared by mixing the required amount of aspirin in the buffer. The process is preferably carried out at room temperature, although other temperatures are acceptable for these preparations.
ASA (aspirin) was attempted to be dissolved in a number of solvent systems and then stability was determined if these solutions provided clear, colorless dissolution of ASA. In the following buffers aspirin was found riot to be soluble. These buffers are listed below: • 1.
In another series of experiments, dissolution of aspirin in solvents that are listed below were attempted to provide parenteral solutions suitable for intravenous administration comprising an effective amount of aspirin. […] The pH of the solutions ranged from 1.5 to 6.8. Ph adjustments were made using 1N NaOH solution. • 1. To water (2.0 ml), 1-propanol (0.5 ml) and Tween 20 (0.5 ml) was added to aspirin at a concentration level of up to 75 mg/ml. […] To water (2.0 ml), 1-propanol (0.5 ml) and Tween 40 (0.5 ml) was added to aspirin at a concentration level of up to 75 mg/ml. […] To water (2.0 ml), 1-propanol (0.5 ml) and Tween 60 (0.5 ml) was added to aspirin at a concentration level of up to 75 mg/ml. […] To water (2.0 ml), 1-propanol (0.5 ml) and Tween 80 (0.5 ml) was added to aspirin at a concentration level of up to 75 mg/ml. […] To water (2.0 ml), 1-propanol (0.5 ml) and PEG 300 was added to aspirin at a concentration level of up to 75 mg/ml. […] To water (2.0 ml), 1-propanol (0.5 ml) and PEG 400 was added to aspirin at a concentration level of up to 75 mg/ml. […] To water (2.0 ml), 1-propanol (0.5 ml) and PEG 600 was added to aspirin at a concentration level of up to 75 mg/ml. […] To water (2.0 ml), 1-propanol (0.5 ml) and glycerol was added to aspirin at a concentration level of up to 75 mg/ml. […] To water (2.0 ml), DMSO (1-2%) and Tween 20 was added to aspirin at a concentration level of up to 75 mg/ml. […] To water (2.0 ml), DMSO (1-2%) and Tween 40 was added to aspirin at a concentration level of up to 75 mg/ml. […] To water (2.0 ml), DMSO (1-2%) and Tween 60 was added to aspirin at a concentration level of up to 75 mg/ml. […] To water (2.0 ml), DMSO (1-2%) and Tween 80 was added to aspirin at a concentration level of up to 75 mg/ml. […] To glycerine (1 ml), 1-propanol (3 ml) and Tween 80 (0.2 ml) was added to aspirin at a concentration level of up to 75 mg/ml. […] To glycerine (1 ml), 1,2-propanol and Tween 80 (0.2 ml) was added to aspirin at a concentration level, of up to 75 mg/ml. […] To glycerine (1 ml), PEG 300 and Tween 80 (0.2 ml) was added to aspirin at a concentration of up to 75 mg/ml. […] To glycerine (1 ml), PEG 400 and Tween 80 (0.2 ml) was added to aspirin at a concentration of up to 75 mg/ml. […] To glycerine (1 ml), PEG 600 and Tween 80 (0.2 ml) was added to aspirin at a concentration of up to 75 mg/ml.
• 1. To N,N-Dimethylacetamide (NNDMA) (10 ml), aspirin was added at a concentration level of up to 500 mg/ml. […] To N,N-Dimethylacetamide (NNDMA) (10 ml) and ASA, glycerol (0.1 in 10 ml) added, Tween 20 (0.1 in 10 ml) were added. […] To N,N-Dimethylacetamide (NNDMA) (10 ml) and ASA, glycerol (0.1 in 10 ml), Tween 40 (0.1 in 10 ml) were added. […] To N,N-Dimethylacetamide (NNDMA) (10 ml) and ASA, glycerol (0.1 in 10 ml), Tween 60 (0.1 in 10 ml) were added. […] To N,N-Dimethylacetamide (NNDMA) (10 ml) and ASA, glycerol (0.1 in 10 ml), Tween 80 (0.1 in 10 ml) were added. […] To N,N-Dimethylacetamide (NNDMA) (10 ml) and ASA, glycerol (0.1 in 10 ml) were added. […] To N,N-Dimethylacetamide (NNDMA) (10 ml) and ASA, glycerol (0.1 in 10 ml), and DMSO (1-2%) were added. […] To N,N-Dimethylacetamide (NNDMA) (10 ml) and ASA, DMSO (1-2%) was added. […] The amount of aspirin present was greater than 98% at room temperature for 6 months. […]

CC(=O)Oc1ccccc1C(=O)O [ASA, aspirin]
suspension that was not clear: Dissolution of ASA in buffer (AMPSO buffer 0.05 M, aspirin 10 to 50 mg/ml in 10 ml (″ = not soluble), listed as aspirin) | Dissolution of ASA in buffer (AMPSO buffer 0.10 M, aspirin 10 to 50 mg/ml in 10 ml (″ = not soluble), listed as aspirin) | Dissolution of ASA in buffer (Bicine buffer 0.10 M, aspirin 10 to 50 mg/ml in 10 ml (″ = not soluble), listed as aspirin) | Dissolution of ASA in buffer (Bis Tris buffer 0.05 M, aspirin 10 mg/ml to 50 mg/ml in 10 ml, listed as aspirin) | Dissolution of ASA in buffer (Bis Tris buffer 0.10 M, aspirin 10 mg/ml to 50 mg/ml in 10 ml, listed as aspirin) | Dissolution of ASA in buffer (CAPS buffer 0.05 M, aspirin 10 to 50 mg/ml in 10 ml (″ = not soluble), listed as aspirin) | Dissolution of ASA in buffer (CAPS buffer 0.10 M, aspirin 10 to 50 mg/ml in 10 ml (″ = not soluble), listed as aspirin) | Dissolution of ASA in buffer (HEPES buffer 0.05 M, aspirin 10 to 50 mg/ml in 10 ml (″ = not soluble), listed as aspirin) | Dissolution of ASA in buffer (HEPES buffer 0.10 M, aspirin 10 to 50 mg/ml in 10 ml (″ = not soluble), listed as aspirin) | Dissolution of ASA in buffer (Saline (normal) 0.10 M, aspirin 10 to 50 mg/ml in 10 ml (″ = not soluble), listed as aspirin) | Dissolution of ASA in buffer (TAPS buffer 0.05 M, aspirin 10 to 50 mg/ml in 10 ml (″ = not soluble), listed as aspirin) | Dissolution of ASA in buffer (TAPS buffer 0.10 M, aspirin 10 to 50 mg/ml in 10 ml (″ = not soluble), listed as aspirin) | Dissolution of ASA in buffer (Tricine buffer 0.10 M, aspirin 10 to 50 mg/ml in 10 ml (″ = not soluble), listed as aspirin) | Dissolution of aspirin in buffer (Tricine buffer (0.1M), list item 7) | Dissolution of aspirin in buffer (bicine buffer (0.1M), list item 8) | Dissolution of aspirin in buffer (sodium acetate (pH 6.5 and 3.8) buffer (0.1M), list item 6) | Dissolution of aspirin in buffer (sodium acetate pH 6.5 and 3.8 buffer (0.1M), list item 15)
readily soluble: solubility in N,N-dimethylacetamide
0.10 M not soluble: Dissolution of ASA in buffer (Bis Tris buffer 0.10 M, aspirin 10 mg/ml to 50 mg/ml in 10 ml)
≤ 500 mg/mL: solubility (N,N-dimethylacetamide (NNDMA), organic solvent or mixture, thermodynamic from solid, read-out: concentration at which aspirin was found to be soluble in NNDMA)
clear solution: Dissolution of ASA in NNDMA and other diluents: appearance (1. N,N-Dimethylacetamide (NNDMA) (10 ml), aspirin up to 500 mg/ml, listed as aspirin) | Dissolution of ASA in NNDMA and other diluents: appearance (2. NNDMA (10 ml), Glycerol (0.1 in 10 ml), Tween 20 (0.1 in 10 ml)) | Dissolution of ASA in NNDMA and other diluents: appearance (3. NNDMA (10 ml), Glycerol (0.1 in 10 ml), Tween 40 (0.1 in 10 ml)) | Dissolution of ASA in NNDMA and other diluents: appearance (4. NNDMA (10 ml), Glycerol (0.1 in 10 ml), Tween 60 (0.1 in 10 ml)) | Dissolution of ASA in NNDMA and other diluents: appearance (5. NNDMA (10 ml), Glycerol (0.1 in 10 ml), Tween 80 (0.1 in 10 ml)) | Dissolution of ASA in NNDMA and other diluents: appearance (6. NNDMA (10 ml), Glycerol (0.1 in 10 ml)) | Dissolution of ASA in NNDMA and other diluents: appearance (7. NNDMA (10 ml), Glycerol (0.1 in 10 ml), DMSO (1-2%)) | Dissolution of ASA in NNDMA and other diluents: appearance (8. NNDMA (10 ml), DMSO (1.2%) (text: 1-2%)) | Dissolution of aspirin in solvent system (glycerine (1 ml), 1,2-propanol, Tween 80 (0.2 ml)) | Dissolution of aspirin in solvent system (glycerine (1 ml), 1-propanol (3 ml), Tween 80 (0.2 ml)) | Dissolution of aspirin in solvent system (glycerine (1 ml), PEG 300, Tween 80 (0.2 ml)) | Dissolution of aspirin in solvent system (glycerine (1 ml), PEG 400, Tween 80 (0.2 ml)) | Dissolution of aspirin in solvent system (glycerine (1 ml), PEG 600, Tween 80 (0.2 ml)) | Dissolution of aspirin in solvent system (water (2.0 ml), 1-propanol (0.5 ml), PEG 300) | Dissolution of aspirin in solvent system (water (2.0 ml), 1-propanol (0.5 ml), PEG 400) | Dissolution of aspirin in solvent system (water (2.0 ml), 1-propanol (0.5 ml), PEG 600) | Dissolution of aspirin in solvent system (water (2.0 ml), 1-propanol (0.5 ml), Tween 20 (0.5 ml)) | Dissolution of aspirin in solvent system (water (2.0 ml), 1-propanol (0.5 ml), Tween 40 (0.5 ml)) | Dissolution of aspirin in solvent system (water (2.0 ml), 1-propanol (0.5 ml), Tween 60 (0.5 ml)) | Dissolution of aspirin in solvent system (water (2.0 ml), 1-propanol (0.5 ml), Tween 80 (0.5 ml)) | Dissolution of aspirin in solvent system (water (2.0 ml), 1-propanol (0.5 ml), glycerol) | Dissolution of aspirin in solvent system (water (2.0 ml), DMSO (1-2%), Tween 20) | Dissolution of aspirin in solvent system (water (2.0 ml), DMSO (1-2%), Tween 40) | Dissolution of aspirin in solvent system (water (2.0 ml), DMSO (1-2%), Tween 60) | Dissolution of aspirin in solvent system (water (2.0 ml), DMSO (1-2%), Tween 80)
0.05 M not soluble: Dissolution of ASA in buffer (Bis Tris buffer 0.05 M, aspirin 10 mg/ml to 50 mg/ml in 10 ml)
Clear Purity: Dissolution of ASA in NNDMA and other diluents: appearance (1. N,N-Dimethylacetamide (NNDMA) (10 ml), aspirin up to 500 mg/ml)

From US8481600B2, “Formulation of aspirin that is stable and showing minimal hydrolysis for parenteral administration for the treatment of cardiovascular and other disease states” (Academic Pharmaceuticals, Inc., priority 2007, dated 2013)
